Reference: ChEMBL document CHEMBL1201862, “PubChem BioAssay data set” (2004)
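Step 1: Grow cells in 96-well plates. Step 2: Expose to compound for 48 hours at 5 concentrations. Step 3: Interpolate endpoints linearly; if unreached, use highest concentration. Abbreviation: GI50, concentration required for 50% inhibition of growth.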 Active and inactive are the calls of the source. Cut-off read from the data, not from the text of the source: active = GI50 up to about 1.1 µM and inactive = higher.

Columns and labels:
Assay in all cases: NCI-60 cell line screen, 48 h
COLO 205 = system: COLO 205
TK-10 = system: TK-10
SF-539 = system: SF-539
NCI/ADR-RES = system: NCI/ADR-RES
SK-OV-3 = system: SK-OV-3
M14 = system: M14
RPMI-8226 = system: RPMI-8226
DU-145 = system: DU-145
K562 = system: K562
SW-620 = system: SW-620
MDA-MB-435 = system: MDA-MB-435
CAKI-1 = system: CAKI-1
CCRF-CEM = system: CCRF-CEM
HCT-116 = system: HCT-116
OVCAR-8 = system: OVCAR-8
MOLT-4 = system: MOLT-4
U-251 = system: U-251
PC-3 = system: PC-3
HL-60 = system: HL-60
NCI-H522 = system: NCI-H522
NCI-H226 = system: NCI-H226
NCI-H23 = system: NCI-H23
MDA-MB-231 = system: MDA-MB-231
KM12 = system: KM12
MDA-N = system: MDA-N
Malme-3M = system: Malme-3M
SF-268 = system: SF-268
T47D = system: T47D
HOP-92 = system: HOP-92
OVCAR-3 = system: OVCAR-3
SF-295 = system: SF-295
EKVX = system: EKVX
HCT-15 = system: HCT-15
SN12C = system: SN12C
BT-549 = system: BT-549
SR = system: SR
UO-31 = system: UO-31
786-0 = system: 786-0
HT-29 = system: HT-29
A549 = system: A549
HOP-62 = system: HOP-62
OVCAR-5 = system: OVCAR-5
A498 = system: A498
RXF 393 = system: RXF 393
SNB-75 = system: SNB-75
ACHN = system: ACHN
MCF7 = system: MCF7
SNB-19 = system: SNB-19
Hs-578T = system: Hs-578T
OVCAR-4 = system: OVCAR-4
SK-MEL-2 = system: SK-MEL-2
SK-MEL-5 = system: SK-MEL-5
UACC-257 = system: UACC-257
SK-MEL-28 = system: SK-MEL-28
LOX IMVI = system: LOX IMVI
IGROV-1 = system: IGROV-1
UACC-62 = system: UACC-62
NCI-H460 = system: NCI-H460
HCC 2998 = system: HCC 2998

Measured: GI50

Cc1ccc([N+](=O)[O-])cc1S(=O)(=O)Nc1ccc(C2=NN(C(=O)c3ccccc3)C(c3ccccc3)C2)cc1 (stereo not given)
19.5 µM: HCT-15
inactive: COLO 205 16.9 µM | TK-10 18 µM | SF-539 16.6 µM | NCI/ADR-RES 30.4 µM | SK-OV-3 16 µM | M14 24.4 µM | RPMI-8226 25.5 µM | DU-145 34 µM | K562 18 µM | SW-620 40.7 µM | MDA-MB-435 21.2 µM | CAKI-1 20 µM | CCRF-CEM 24.9 µM | HCT-116 18.1 µM | OVCAR-8 18.9 µM | MOLT-4 15.5 µM | U-251 16.6 µM | PC-3 19.8 µM | HL-60 21.5 µM | NCI-H522 11.5 µM | NCI-H226 15.5 µM | NCI-H23 21.4 µM | MDA-MB-231 15.5 µM | KM12 26.2 µM | MDA-N 21.2 µM | Malme-3M 18.2 µM | SF-268 18.5 µM | T47D 10.6 µM | HOP-92 14.5 µM | OVCAR-3 11.9 µM | SF-295 16.9 µM | EKVX 16.3 µM | SN12C 21.8 µM | BT-549 22.6 µM | SR 26.4 µM | UO-31 22.4 µM | 786-0 17.4 µM | HT-29 24.9 µM | A549 18.7 µM | HOP-62 15.9 µM | OVCAR-5 41.3 µM | A498 10.9 µM | RXF 393 12.1 µM | SNB-75 16.9 µM | ACHN 19 µM | MCF7 17.1 µM | SNB-19 29.1 µM | Hs-578T 22.1 µM | OVCAR-4 18.2 µM | SK-MEL-2 14.4 µM | SK-MEL-5 12.9 µM | UACC-257 20.6 µM | SK-MEL-28 41.6 µM | LOX IMVI 30.5 µM | IGROV-1 17 µM

O=C(O)CN1C(=O)c2ccc(NC(=O)C(=O)O)cc2S1(=O)=O
> 100 µM: HCT-15
inactive: COLO 205 > 100 µM | TK-10 > 100 µM | NCI/ADR-RES > 100 µM | SK-OV-3 > 100 µM | M14 > 100 µM | RPMI-8226 > 100 µM | DU-145 > 100 µM | K562 > 100 µM | SW-620 > 100 µM | MDA-MB-435 > 100 µM | CAKI-1 > 100 µM | CCRF-CEM > 100 µM | HCT-116 > 100 µM | UACC-62 > 100 µM | MOLT-4 > 100 µM | U-251 > 100 µM | PC-3 > 100 µM | HL-60 > 100 µM | NCI-H522 > 100 µM | NCI-H460 > 100 µM | NCI-H226 > 100 µM | NCI-H23 > 100 µM | MDA-MB-231 > 100 µM | KM12 > 100 µM | MDA-N > 100 µM | Malme-3M > 100 µM | SF-268 > 100 µM | T47D > 100 µM | HOP-92 > 100 µM | SF-295 > 100 µM | EKVX > 100 µM | SN12C > 100 µM | BT-549 > 100 µM | SR > 100 µM | UO-31 89.7 µM | 786-0 > 100 µM | A549 > 100 µM | HOP-62 > 100 µM | OVCAR-5 > 100 µM | A498 > 100 µM | RXF 393 > 100 µM | ACHN > 100 µM | MCF7 > 100 µM | SNB-19 > 100 µM | Hs-578T > 100 µM | HCC 2998 > 100 µM | OVCAR-4 > 100 µM | SK-MEL-2 > 100 µM | SK-MEL-5 > 100 µM | UACC-257 > 100 µM | SK-MEL-28 > 100 µM | LOX IMVI > 100 µM | IGROV-1 > 100 µM

CN(C)c1ccc(C2CC(c3ccc4ccccc4c3O)=NN2)cc1 (stereo not given)
44 µM: HCT-15
inactive: COLO 205 19.5 µM | TK-10 56.4 µM | SF-539 24.5 µM | NCI/ADR-RES 30.3 µM | SK-OV-3 48.5 µM | M14 31.8 µM | RPMI-8226 29.6 µM | DU-145 50.4 µM | K562 25.5 µM | SW-620 32.9 µM | MDA-MB-435 30.4 µM | CAKI-1 40.6 µM | CCRF-CEM 17.9 µM | HCT-116 31.7 µM | UACC-62 36.2 µM | OVCAR-8 32.4 µM | MOLT-4 20.3 µM | U-251 33.6 µM | PC-3 32 µM | NCI-H522 22.2 µM | NCI-H460 32.2 µM | NCI-H226 41.5 µM | NCI-H23 34.5 µM | MDA-MB-231 50 µM | KM12 39.5 µM | MDA-N 26.5 µM | Malme-3M 51.1 µM | SF-268 32.5 µM | T47D 38.8 µM | HOP-92 29.4 µM | OVCAR-3 18 µM | SF-295 31.6 µM | SN12C 33.2 µM | BT-549 39.1 µM | SR 14.1 µM | UO-31 30.1 µM | 786-0 21.9 µM | HT-29 34.4 µM | A549 31 µM | HOP-62 31 µM | OVCAR-5 80.7 µM | A498 22.4 µM | RXF 393 36.1 µM | SNB-75 37 µM | ACHN 38.4 µM | MCF7 27.7 µM | Hs-578T 37.4 µM | HCC 2998 69.7 µM | OVCAR-4 94.4 µM | SK-MEL-2 35.7 µM | SK-MEL-5 36 µM | UACC-257 38.8 µM | SK-MEL-28 63.1 µM | IGROV-1 24.9 µM
